Results on five compounds are retold here after patent US7767677B2, “Heterocyclic derivatives and their use as stearoyl-CoA desaturase inhibitors” (Xenon Pharmaceuticals Inc., priority 2004, dated 2010).

A word on the melting point: it is the temperature, or range, at which the solid turns liquid. For the compound `CCCc1noc(-c2ccc(N3CCN(C(=O)c4ccccc4C(F)(F)F)CC3)nn2)n1` [Example 7, {4-[6-(3-propyl[1,2,4]oxadiazol-5-yl)pyridazin-3-YL]piperazin-1-yl}-(2-trifluoromethylphenyl)methanone], the melting point was 226 °C.

For `O=C(c1cc(F)ccc1C(F)(F)F)N1CCN(c2ccc(-c3ncc(-c4ccccc4)o3)nn2)CC1` [Example 12, (5-fluoro-2-trifluoromethylphenyl)-{4-[6-(5-phenyloxazol-2-yl)pyridazin-3-yl]piperazin-1-yl}methanone], the melting point was 122 to 125 °C.

Compound `CCCCc1nc(-c2ccc(N3CCN(C(=O)c4ccccc4C(F)(F)F)CC3)nn2)no1` [Example 4.1, {4-[6-(5-butyl[1,2,4]oxadiazol-3-yl)pyridazin-3-yl]piperazin-1-yl}-(2-trifluoromethylphenyl)methanone] gave a melting point of 175 °C.

Compound `CCc1nc(-c2ccc(N3CCN(C(=O)c4ccccc4C(F)(F)F)CC3)nn2)no1` [Example 4, {4-[6-(5-ethyl-[1,2,4]oxadiazol-3-yl)pyridazin-3-yl]piperazin-1-yl}-(2-trifluoromethylphenyl)methanone] displayed a melting point of 204 °C.

The compound `CCCCCc1noc(-c2ccc(N3CCN(C(=O)c4ccccc4C(F)(F)F)CC3)nn2)n1` [Example 7.1, {4-[6-(3-pentyl[1,2,4]oxadiazol-5-yl)pyridazin-3-yl]piperazin-1-yl}-(2-trifluoromethylphenyl)methanone] registered a melting point of 164 °C.
